Experiments:
[1] = target: T1, human soluble ENPP1 (Homo sapiens, UniProt P22413); test: ENPP1 activity assay using p-Nitrophenyl-5′-TMP as a substrate; assay type: biochemical
T1 construct: 20 ng of human soluble ENPP1
T1 sequence (P22413 103-925 limits assumed): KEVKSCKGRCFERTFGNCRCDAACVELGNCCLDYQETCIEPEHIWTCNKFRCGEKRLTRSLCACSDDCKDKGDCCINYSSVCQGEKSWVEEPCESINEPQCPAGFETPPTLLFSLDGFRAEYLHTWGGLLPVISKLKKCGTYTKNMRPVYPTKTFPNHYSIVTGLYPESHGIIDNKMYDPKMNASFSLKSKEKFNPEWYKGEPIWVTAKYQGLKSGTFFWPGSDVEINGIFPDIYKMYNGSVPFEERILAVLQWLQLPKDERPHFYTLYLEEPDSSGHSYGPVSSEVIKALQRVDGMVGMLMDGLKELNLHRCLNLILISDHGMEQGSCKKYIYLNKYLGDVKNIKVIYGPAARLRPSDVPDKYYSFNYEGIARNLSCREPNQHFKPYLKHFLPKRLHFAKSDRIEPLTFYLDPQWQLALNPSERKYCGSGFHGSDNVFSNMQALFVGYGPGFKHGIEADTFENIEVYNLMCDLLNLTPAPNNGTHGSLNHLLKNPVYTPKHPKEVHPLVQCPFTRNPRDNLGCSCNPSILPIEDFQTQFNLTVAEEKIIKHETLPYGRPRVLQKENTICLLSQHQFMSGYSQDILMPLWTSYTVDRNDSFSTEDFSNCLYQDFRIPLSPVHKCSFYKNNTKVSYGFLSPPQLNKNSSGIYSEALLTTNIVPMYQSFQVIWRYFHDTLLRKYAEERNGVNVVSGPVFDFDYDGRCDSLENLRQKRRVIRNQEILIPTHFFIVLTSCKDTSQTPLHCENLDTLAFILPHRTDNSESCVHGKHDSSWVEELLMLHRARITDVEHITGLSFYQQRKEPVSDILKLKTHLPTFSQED
Outline: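 Human soluble ENPP1 (20 ng) was preincubated with inhibitor for 30 min at room temperature. TMP-pNP was then added as a 2 mM […] solution and incubated 1 h at RT, with p-nitrophenol formation read by OD. IC50 came from four-parameter fits of % inhibition relative to no-inhibitor and blank controls.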

[2] = target: T1, human soluble ENPP1; test: ENPP1 activity assay using p-Nitrophenyl-5′-AMP as a substrate; assay type: biochemical
Outline: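 Human soluble ENPP1 (35 ng) preincubated with inhibitor 30 min at RT, then p-nitrophenyl-5′-AMP added (3 mM solution, 2× final) and incubated 1 h at RT. p-Nitrophenolate release read at OD 405 nm; % inhibition vs no-inhibitor and blank controls, IC50 from four-parameter fit.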

[3] = target: T2, ENPP-1, MDA-MB-231 cells (Homo sapiens, UniProt P22413); test: cell-based; settings: for inhibition at 20 µM: MDA-MB-231, read-out: % Inhibition (at 20 μM)
T2 sequence (P22413 1-925): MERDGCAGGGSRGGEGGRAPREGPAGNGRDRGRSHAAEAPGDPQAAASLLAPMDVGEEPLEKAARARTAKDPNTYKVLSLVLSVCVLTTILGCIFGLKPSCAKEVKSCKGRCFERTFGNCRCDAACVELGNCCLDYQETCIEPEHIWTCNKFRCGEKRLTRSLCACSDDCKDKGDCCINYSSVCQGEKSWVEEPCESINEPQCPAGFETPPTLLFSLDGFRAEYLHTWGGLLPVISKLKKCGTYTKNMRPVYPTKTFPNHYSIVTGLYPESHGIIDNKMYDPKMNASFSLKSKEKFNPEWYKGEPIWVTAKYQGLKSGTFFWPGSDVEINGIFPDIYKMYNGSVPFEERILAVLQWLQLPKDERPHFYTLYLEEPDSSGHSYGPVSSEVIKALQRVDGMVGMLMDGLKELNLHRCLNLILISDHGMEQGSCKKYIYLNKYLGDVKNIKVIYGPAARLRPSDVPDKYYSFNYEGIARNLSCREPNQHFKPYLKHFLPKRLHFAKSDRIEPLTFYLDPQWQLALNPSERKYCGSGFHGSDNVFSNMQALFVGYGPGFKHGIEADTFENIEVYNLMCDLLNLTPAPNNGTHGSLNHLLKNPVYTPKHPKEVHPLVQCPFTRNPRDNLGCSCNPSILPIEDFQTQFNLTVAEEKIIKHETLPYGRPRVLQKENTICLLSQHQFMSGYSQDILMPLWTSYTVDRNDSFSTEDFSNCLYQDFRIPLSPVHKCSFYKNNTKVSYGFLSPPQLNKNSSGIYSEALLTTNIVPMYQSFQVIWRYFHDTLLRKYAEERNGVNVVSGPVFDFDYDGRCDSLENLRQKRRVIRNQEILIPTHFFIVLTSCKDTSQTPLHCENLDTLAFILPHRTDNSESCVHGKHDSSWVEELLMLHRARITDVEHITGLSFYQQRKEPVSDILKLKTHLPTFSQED

[4] = Pharmacokinetics in mice; assay type: in vivo; settings: mouse, plasma, male CD-1 mice; for AUC / clearance / half-life / Vd: 1 mg/kg, iv; for Vd: read-out: Vdss; for bioavailability: oral gavage (PO) at 5 mg/kg vs IV 1 mg/kg
Description: A dosing solution of test sample was prepared at 1.0 mg/mL in 5% DMSO/40% PEG400/55% water and administered to male CD-1 mice (4-6 weeks old, 20-30 grams, 3 animals each group) via intravenous (IV) bolus at 1 mg/kg and by oral gavage (PO) at 5 mg/kg. Blood samples (˜0.03 mL each time point) were collected via the jugular vein into tubes containing sodium heparin as the anticoagulant at 0.033, 0.083, 0.25, 0.5, 1, 2, 4, 8 and 24 hours post dose for IV administration and 0.083, 0.25, 0.5, 1, 2, 4, 8 and 24 hours post dose for PO administration. The blood samples were then centrifuged for 5 minutes in a centrifuge refrigerated at 4° C. The resultant plasma samples were analyzed using LC/MS/MS to determine concentrations of test sample. Non-compartmental model with WinNonlin (Phoenix™, version 8.0) software was used to calculate pharmacokinetic (PK) parameters.

| SMILES | IC50 [1] [nM] | IC50 [2] [nM] | IC50 [3] [nM] | inhibition at 20 µM [3] [%] | AUC [4] [ng·h/mL] | clearance [4] [mL/min/kg] | half-life [4] [h] | Vd [4] [L/kg] | bioavailability [4] [%] |
| --- | --- | --- | --- | --- | --- | --- | --- | --- | --- |
| COc1ccc2c(ncc3[nH]c(=O)n(Cc4ccc(S(N)(=O)=O)cc4F)c32)n1 [Compound 102, 3-fluoro-4-((7-methoxy-2-oxo-2,3-dihydro-1H-imidazo[4,5-c][1,8]naphthyridin-1-yl)methyl)benzenesulfonamide] | 0.51 | 0.74 | 430 | 86 | 657 | 26 | 5.1 | 5.2 | 8.4 |
| COc1ccc2c(ncc3ncn(CC4CN(S(N)(=O)=O)C4)c32)n1 [Compound 52, 3-((7-methoxy-1H-imidazo[4,5-c][1,8]naphthyridin-1-yl)methyl)azetidine-1-sulfonamide] | 0.54 | 2.2 | 1300 | 79 | 179 | 103 | 0.35 | 1.1 | – |
| COc1ccc2c(ncc3nc(C4CC4)n(Cc4ccc(S(N)(=O)=O)cn4)c32)n1 [Compound 74, 6-((2-cyclopropyl-7-methoxy-1H-imidazo[4,5-c][1,8]naphthyridin-1-yl)methyl)pyridine-3-sulfonamide] | 0.09 | 0.12 | 85 | 81 | 138 | 123 | 1.4 | 14 | – |
| COc1ccc2c(ncc3c2n(Cc2c(F)cc(S(N)(=O)=O)cc2F)c(=O)n3C)n1 [Compound 114, 3,5-difluoro-4-((7-methoxy-3-methyl-2-oxo-2,3-dihydro-1H-imidazo[4,5-c][1,8]naphthyridin-1-yl)methyl)benzenesulfonamide] | 0.27 | 0.23 | 80 | 77 | 454 | 37 | 3.9 | 12 | 33 |
| COc1ccc2c(ncc3nnn(Cc4ccc(S(N)(=O)=O)cn4)c32)n1 [Compound 119, 6-((7-methoxy-1H-[1,2,3]triazolo[4,5-c][1,8]naphthyridin-1-yl)methyl)pyridine-3-sulfonamide] | 0.7 | 1.1 | 120 | 83 | 301 | 56 | 1.4 | 4.5 | – |
| COc1ccc2c(ncc3ncn(Cc4ccc(S(N)(=O)=O)c(C(F)(F)F)c4)c32)n1 [Compound 65, 4-((7-methoxy-1H-imidazo[4,5-c][1,8]naphthyridin-1-yl)methyl)-2-(trifluoromethyl)benzenesulfonamide] | 3 | 8.7 | 1600 | 75 | 185 | 92 | 0.72 | 3.1 | – |
| COc1ccc2c(ncc3nnn(Cc4ccc(S(N)(=O)=O)c(F)c4)c32)n1 [Compound 120, 2-fluoro-4-((7-methoxy-1H-[1,2,3]triazolo[4,5-c][1,8]naphthyridin-1-yl)methyl)benzenesulfonamide] | 1.78 | 4.4 | 1100 | 79 | 260 | 65 | 2 | 8.9 | – |
| COc1ccc2c(ncc3nc(CN4CCOCC4)n(Cc4ccc(S(N)(=O)=O)c(F)c4)c32)n1 [Compound 80, 2-fluoro-4-((7-methoxy-2-(morpholinomethyl)-1H-imidazo[4,5-c][1,8]naphthyridin-1-yl)methyl)benzenesulfonamide] | 1.8 | 6.4 | 1800 | 75 | 158 | 107 | 0.13 | 1 | – |
| COc1ccc2c(ncc3ncn(Cc4ccc(S(N)(=O)=O)cc4F)c32)n1 [Compound 62, 3-fluoro-4-((7-methoxy-1H-imidazo[4,5-c][1,8]naphthyridin-1-yl)methyl)benzenesulfonamide] | 0.1 | 1.5 | 45 | 89 | 163 | 105 | 4.9 | 39 | – |

Second part, the compound after the results:

| IC50 [1] [nM] | IC50 [2] [nM] | IC50 [3] [nM] | inhibition at 20 µM [3] [%] | AUC [4] [ng·h/mL] | clearance [4] [mL/min/kg] | half-life [4] [h] | Vd [4] [L/kg] | bioavailability [4] [%] | SMILES |
| --- | --- | --- | --- | --- | --- | --- | --- | --- | --- |
| 0.8 | 2.4 | 560 | 82 | 253 | 66 | 0.86 | 2.2 | – | COc1ccc2c(ncc3nc(CC#N)n(Cc4ccc(S(N)(=O)=O)c(F)c4)c32)n1 [Compound 82, 4-((2-(cyanomethyl)-7-methoxy-1H-imidazo[4,5-c][1,8]naphthyridin-1-yl)methyl)-2-fluorobenzenesulfonamide] |
| 1 | 2.9 | 1100 | 76 | 288 | 60 | 0.74 | 2.8 | – | COc1ccc2c(ncc3nc(C)n(Cc4ccc(S(N)(=O)=O)c(F)c4)c32)n1 [Compound 71, 2-fluoro-4-((7-methoxy-2-methyl-1H-imidazo[4,5-c][1,8]naphthyridin-1-yl)methyl)benzenesulfonamide] |
| 0.36 | 0.96 | 270 | 81 | 267 | 63 | 0.6 | 1.6 | – | COc1ccc2c(ncc3nc(C)n(Cc4ccc(S(N)(=O)=O)nc4)c32)n1 [Compound 73, 5-((7-methoxy-2-methyl-1H-imidazo[4,5-c][1,8]naphthyridin-1-yl)methyl)pyridine-2-sulfonamide] |
| 0.64 | 1.2 | 290 | 85 | 668 | 26 | 2.6 | 4.3 | – | COc1ccc2c(ncc3nc(C)n(Cc4cc(F)c(S(N)(=O)=O)cc4F)c32)n1 [Compound 70, 2,5-difluoro-4-((7-methoxy-2-methyl-1H-imidazo[4,5-c][1,8]naphthyridin-1-yl)methyl)benzenesulfonamide] |

Source: patent publication US11673889B2, “Substituted imidazo[4,5-c][1,8]naphthyridines as phosphodiesterase inhibitors” (Nanjing Zhengxiang Pharmaceuticals Co., Ltd., priority 2019, dated 2023)
